For assay [1], the target named is T1, C5a receptor (Homo sapiens, UniProt P21730).
T1 construct: endogenous in cells; host or cells: leukocytes/granulocytes in freshly drawn whole blood of healthy volunteers
T1 sequence (P21730 1-350): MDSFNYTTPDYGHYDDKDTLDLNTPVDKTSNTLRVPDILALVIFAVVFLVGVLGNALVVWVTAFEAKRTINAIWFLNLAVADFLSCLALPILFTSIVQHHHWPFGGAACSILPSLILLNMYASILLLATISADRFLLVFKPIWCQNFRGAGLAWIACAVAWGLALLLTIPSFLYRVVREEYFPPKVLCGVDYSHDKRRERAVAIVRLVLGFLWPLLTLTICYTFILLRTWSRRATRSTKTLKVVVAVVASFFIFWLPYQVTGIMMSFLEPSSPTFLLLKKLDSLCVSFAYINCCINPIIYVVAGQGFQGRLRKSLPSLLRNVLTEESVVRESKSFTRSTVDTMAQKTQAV
Kind of assay: HWB oxidative burst assay (C5a-induced, luminol chemiluminescence). In kind it is cell-based. Here is the method: Inhibition of oxidative burst activity was determined in HWB primed with TNF-α and stimulated with C5a. C5a-induced oxidative burst response (generation of reactive oxygen species) was then detected in the presence of luminol as a chemiluminescent signal.
On the day of assay, HWB was collected from a healthy, non-medicated volunteer into tubes containing 3.8% sodium citrate (final sodium citrate concentration in HWB is 0.38%) and stored in a 37° C. water bath until use (no longer than 60 minutes).
To start the assay, TNF-α was added to HWB to a final concentration of 1.0 nM and 68 μL of this HWB/TNF-α mix was transferred to each well of a 384-well white Optiplate (assay plate). 4.0 μL of various concentrations of test agent were then added to the assay plate and mixed twice gently by aspirating up and down. The assay plate was then placed on a thermoshaker (JITTERBUG-4) and incubated at 37° C. (without shaking). After 60 minutes, C5a (Complement Technology) prepared in luminol (Sigma) was added to the assay plate and mixed twice gently by aspirating up and down. The plate was then placed in a ViewLux 1430 Microplate Imager (Perkin Elmer). After 5 minutes, oxidative burst activity was determined with the ViewLux by measuring luminol-enhanced whole blood chemiluminescence. Final assay conditions were 1.5 mM HEPES pH 7.5, 0.015% BSA, 15% HBSS, 0.85 ng/mL TNFα, 1.0 mM Luminol, C5a 20 nM, 76.5% HWB, 0.15% DMSO and various concentrations of test agent.
The percent (%) effect at each concentration of test agent was then calculated based on and relative to the amount of signal that was produced by positive (i.e. full inhibition of C5a induced oxidative burst) and negative (i.e. completely uninhibited C5a induced oxidative burst) control wells contained within each assay plate. The concentration and % effect values for test agents were plotted and the concentration of test agent required for 50% effect (IC50) was determined with a four-parameter logistic dose response equation (BioBook; IDBS). Kb (nM) was then calculated (BioBook; IDBS) using the equation described by Leff and Dougal (TIPS 1993 14:110-112).

The target of assay [2] is T1, C5a receptor. Kind of assay: HWB CD11b expression assay (C5a-challenged granulocytes, flow cytometry). It is filed as cell-based. Here is the method:
HWB was collected from healthy, non-medicated volunteers into BD Vacutainer® blood collection tubes with K2EDTA as an anticoagulant. HWB was aliquoted (85 μL/well) in 96-well, deep-well, V-bottom plates and incubated at 37° C. for 30 minutes. Test compounds (5 μL/well) were added to HWB and incubated at 37° C. for 30 minutes. Anti-human CD11b antibody conjugated with APC (BD Biosciences) was added to HWB (5 μL/well) and incubated at 37° C. for additional 30 minutes. HWB was then challenged with human C5a (final 1 nM) for 30 minutes at 37° C. Samples were treated with warm 1× Lyse/Fix buffer (BD Biosciences) to terminate activation and further incubated at 37° C. for 20 minutes to lyse red blood cells. Assay plates were centrifuged at 300×g for 5 minutes, supernatant was aspirated, and cells were washed once with PBS containing 0.5% FBS. Washed cells were resuspended in PBS containing 0.5% FBS and subjected to flow cytometric analysis using an LSRFortessa equipped with a HTS plate loader (BD Biosciences). The granulocyte population was gated for analysis of MF of CD11b staining using FACSDiva version 6.2 (BD Biosciences). Data from 11 compound concentrations (singlicate at each concentration) was normalized as a percentage of control based on the formula:
% of Control=100×(A−B)/(C−B)
where A is MF from wells containing test compound and C5a, B is MF from wells without C5a (background MF from unstimulated samples) and C is MF from wells containing only C5a (maximum MF). Inhibition curves and IC50 values (test compound concentrations which produce 50% inhibition) were determined using the Prism version 5 software (GraphPad). HWB was also stimulated with 11 different concentrations of C5a to construct a responsive curve and to obtain EC50 value (the concentration of C5a that gives half-maximal response) and curve slope using the Prism version 5 software. Kb (nM) was then calculated using the equation described by Leff and Dougal (TIPS 1993 14:110-112).
In general terms: In flow cytometry, cells or beads pass a laser one at a time.

SMILES strings stand for the structures. Numbered stars: 1 amine (or outer) side, 2 acyl side, 3 side chain; on linkers, the order of the positions; unused ones are H or OH. Bridge positions count the residues as written; N and C are the ends. Square brackets hold non-standard residues; d marks the D form. Peptide text beside a SMILES is read from it. * marks the point of attachment. X2 = O=C([C@@H](C[C@H]1CC[C@@H](O)CC1)N[*:1])[*:2]; X1 = CN(CC(=O)O)[C@@H](Cc1ccccc1)C(=O)*; Hyp = O=C(O)[C@@H]1C[C@@H](O)CN1; Orn = NCCC[C@H](N)C(=O)O

With `N=C(N)NCCC[C@@H]1NC(=O)[C@H](Cc2c[nH]c3ccccc23)NC(=O)[C@@H](C[C@H]2CC[C@@H](O)CC2)NC(=O)[C@@H]2C[C@@H](O)CN2C(=O)[C@@H](NC(=O)[C@H](Cc2ccccc2)NCC(=O)O)CCCNC1=O` [Example 1, ((S)-1-(((3R,6S,9S,15S,19R,20aS)-6-((1H-indol-3-yl)methyl)-9-(3-guanidinopropyl)-19-hydroxy-3-(((1s,4S)-4-hydroxycyclohexyl)methyl)-1,4,7,10,16-pentaoxoicosahydropyrrolo[1,2-a][1,4,7,10,13]pentaazacyclooctadecin-15-yl)amino)-1-oxo-3-phenylpropan-2-yl)glycine], the results for the Kb at C5a receptor [1] and on C5a receptor [2] were 1.6 nM and 13.1 nM, respectively.

On to `N=C(N)NCCC[C@@H]1NC(=O)[C@H](Cc2c[nH]c3ccccc23)NC(=O)[C@@H](C[C@H]2CC[C@@H](O)CC2)NC(=O)[C@@H]2C[C@@H](OCC(=O)O)CN2C(=O)[C@@H](NC(=O)[C@H](Cc2ccccc2)NCC(=O)O)CCCNC1=O` [Example 2, 2-(((3R,6S,9S,15S,19R,20aS)-6-((1H-indol-3-yl)methyl)-15-((S)-2-((carboxymethyl)amino)-3-phenylpropanamido)-9-(3-guanidinopropyl)-3-(((1s,4S)-4-hydroxycyclohexyl)methyl)-1,4,7,10,16-pentaoxoicosahydropyrrolo[1,2-a][1,4,7,10,13]pentaazacyclooctadecin-19-yl)oxy)acetic Acid], for which the Kb at C5a receptor [1] was 3 nM; on C5a receptor [2], 28.8 nM. For `Cc1cnn(C[C@@H]2NC(=O)[C@@H](C[C@H]3CC[C@@H](O)CC3)NC(=O)[C@@H]3C[C@@H](O)CN3C(=O)[C@@H](NC(=O)[C@H](Cc3ccccc3)NCC(=O)O)CCCNC(=O)[C@H](CCCNC(=N)N)NC2=O)c1` [Example 3, ((S)-1-(((3R,6S,9S,15S,19R,20aS)-9-(3-guanidinopropyl)-19-hydroxy-3-(((1s,4S)-4-hydroxycyclohexyl)methyl)-6-((4-methyl-1H-pyrazol-1-yl)methyl)-1,4,7,10,16-pentaoxoicosahydropyrrolo[1,2-a][1,4,7,10,13]pentaazacyclooctadecin-15-yl)amino)-1-oxo-3-phenylpropan-2-yl)glycine] the same measures were 21.6 nM and 212 nM. For `COc1ccc2[nH]cc(C[C@@H]3NC(=O)[C@@H](C[C@H]4CC[C@@H](O)CC4)NC(=O)[C@@H]4C[C@@H](O)CN4C(=O)[C@@H](NC(=O)[C@H](Cc4ccccc4)NCC(=O)O)CCCNC(=O)[C@H](CCCNC(=N)N)NC3=O)c2c1` [Example 4, ((S)-1-(((3R,6S,9S,15S,19R,20aS)-9-(3-guanidinopropyl)-19-hydroxy-3-(((1s,4S)-4-hydroxycyclohexyl)methyl)-6-((5-methoxy-1H-indol-3-yl)methyl)-1,4,7,10,16-pentaoxoicosahydropyrrolo[1,2-a][1,4,7,10,13]pentaazacyclooctadecin-15-yl)amino)-1-oxo-3-phenylpropan-2-yl)glycine] the same measures were 3 nM and 53.8 nM. Regarding `N=C(N)NCCC[C@@H]1NC(=O)[C@H](Cc2c[nH]c3ncccc23)NC(=O)[C@@H](C[C@H]2CC[C@@H](O)CC2)NC(=O)[C@@H]2CCCN2C(=O)[C@@H](NC(=O)[C@H](Cc2ccccc2)NCC(=O)O)CCCNC1=O` [Example 5, ((S)-1-(((3R,6S,9S,15S,20aS)-6-((1H-pyrrolo[2,3-b]pyridin-3-yl)methyl)-9-(3-guanidinopropyl)-3-(((1s,4S)-4-hydroxycyclohexyl)methyl)-1,4,7,10,16-pentaoxoicosahydropyrrolo[1,2-a][1,4,7,10,13]pentaazacyclooctadecin-15-yl)amino)-1-oxo-3-phenylpropan-2-yl)glycine], the Kb was 27.3 nM at C5a receptor [1] (human whole blood primed with TNF-α, stimulated with C5a 20 nM, Kb calculated from IC50 (Leff and Dougal), read-out: Oxidative burst, Kb); 300 nM at C5a receptor [2] (human whole blood challenged with human C5a 1 nM, granulocyte CD11b mean fluorescence, Kb calculated from IC50 (Leff and Dougal), read-out: CD11b, Kb). On C5a receptor [1], `CN(CC(=O)O)[C@@H](Cc1ccccc1)C(=O)N[C@H]1CCCNC(=O)[C@H](CCCNC(=N)N)NC(=O)[C@H](Cc2c[nH]c3ccccc23)NC(=O)[C@@H](C[C@H]2CC[C@@H](O)CC2)NC(=O)[C@@H]2C[C@@H](O)CN2C1=O` [Example 11, N—((S)-1-(((3R,6S,9S,15S,19R,20aS)-6-((1H-indol-3-yl)methyl)-9-(3-guanidinopropyl)-19-hydroxy-3-(((1s,4S)-4-hydroxycyclohexyl)methyl)-1,4,7,10,16-pentaoxoicosahydropyrrolo[1,2-a][1,4,7,10,13]pentaazacyclooctadecin-15-yl)amino)-1-oxo-3-phenylpropan-2-yl)-N-methylglycine] (X1-[Orn][Hyp][X2]WR; lactam 1-C) yielded a Kb of 1.2 nM. Same read-out and setting: the figure for `[2H]c1cc([2H])cc(C[C@H](NCC(=O)O)C(=O)N[C@H]2CCCNC(=O)[C@H](CCCNC(=N)N)NC(=O)[C@H](Cc3c[nH]c4ccccc34)NC(=O)[C@@H](C[C@H]3CC[C@@H](O)CC3)NC(=O)[C@@H]3C[C@@H](O)CN3C2=O)c1` [Example 13, ((S)-1-(((3R,6S,9S,15S,19R,20aS)-6-((1H-indol-3-yl)methyl)-9-(3-guanidinopropyl)-19-hydroxy-3-(((1s,4S)-4-hydroxycyclohexyl)methyl)-1,4,7,10,16-pentaoxoicosahydropyrrolo[1,2-a][1,4,7,10,13]pentaazacyclooctadecin-15-yl)amino)-1-oxo-3-(3,5-dideuterophenyl)propan-2-yl)glycine] is 1.3 nM; for `N=C(N)NCCC[C@@H]1NC(=O)[C@H](Cc2c[nH]c3ccccc23)NC(=O)[C@@H](C[C@H]2CC[C@@H](O)CC2)NC(=O)[C@@H]2C[C@@H](NCC(=O)O)CN2C(=O)[C@@H](NC(=O)[C@H](Cc2ccccc2)NCC(=O)O)CCCNC1=O` [Example 14, ((31R,6S,9S,15S,19R,20aS)-6-((1H-indol-3-yl)methyl)-15-((S)-2-((carboxymethyl)amino)-3-phenylpropanamido)-9-(3-guanidinopropyl)-3-(((1s,4S)-4-hydroxycyclohexyl)methyl)-1,4,7,10,16-pentaoxoicosahydropyrrolo[1,2-a][1,4,7,10,13]pentaazacyclooctadecin-19-yl)glycine] it is 1.7 nM. Turning to `COc1ccc2c(C[C@@H]3NC(=O)[C@@H](C[C@H]4CC[C@@H](O)CC4)NC(=O)[C@@H]4C[C@@H](O)CN4C(=O)[C@@H](NC(=O)[C@H](Cc4ccccc4)NCC(=O)O)CCCNC(=O)[C@H](CCCNC(=N)N)NC3=O)c[nH]c2c1` [Example 15, ((S)-1-(((3R,6S,9S,15S,19R,20aS)-9-(3-guanidinopropyl)-19-hydroxy-3-(((1s,4S)-4-hydroxycyclohexyl)methyl)-6-((6-methoxy-1H-indol-3-yl)methyl)-1,4,7,10,16-pentaoxoicosahydropyrrolo[1,2-a][1,4,7,10,13]pentaazacyclooctadecin-15-yl)amino)-1-oxo-3-phenylpropan-2-yl)glycine], the Kb on C5a receptor [1] stood at 2.2 nM.

(Values after patent US20190270778A1, “Cyclic Peptides As C5a Receptor Antagonists” (priority 2016, published 2019).)
